Test results published in patent US20100323902A1, “Live-cell signals of pathogen intrusion and methods thereof” (priority 2007, published 2010).
Like-named read-outs stand apart in the source and are kept apart here.

Tests used:
[1] = test system: adenovirus; conditions: cited from earlier work
[2] = test system: FAK; assay: Mercator Phosphoarray assay in non-infected A431 cells, FAK; format: cell-based, Human
Procedure: (§1) Thus, A431 cells were infected overnight in serum-free medium with various doses of Adenovirus-GFP (MOI of about 1, c, about 10, b or about 500, a). As a negative control A431 cells were treated only with serum-free medium (mock control bar “d”). At 20 hrs post infection, the infected and non-infected A431 cells were washed and then stimulated with 32 nM EGF for 30 min (FIG. 8A), 25 nM epinephrine for 1 hr (FIG. 8B), or serum-free medium for 1 hr at ambient room temperature (column e in FIGS. 8A and 8B, cell non infected and untreated). Cells extracts were then prepared according to the recommended protocol and analyzed using Mercator™ phosphoarray assay. […] The letter labeled bars (a-e) represent: a=EFG/−adenovirus MOI 500, b=EFG/adenovirus MOI 10, c=EFG/adenovirus MOI 1, d=EFG-mock, and e=untreated cells. […] The letter labeled bars (a-e) are as above for FIG. 8A.

[3] = test system: Paxillin; assay: Mercator Phosphoarray assay in non-infected A431 cells, Paxillin; format: cell-based, Human
Procedure: as §1

[4] = test system: Akt; conditions: 25 nM epinephrine for 1 hr vs untreated cells
Procedure: as §1

[5] = test system: A431 cells; assay: Marker-induced DMR signal in A431 cells (RWG biosensor); format: cell-based, Human
Procedure: Cell Culture—Human epidermoid carcinoma A431 cells were obtained from American Type Cell Culture. For A431 cell culturing, A431 cells were grown in Dulbecco's modified Eagle's medium (DMEM) supplemented with 10% fetal bovine serum (FBS), 4.5 g/liter glucose, 2 mM glutamine, and antibiotics. about 1-2×10^4 cells at passage 3 to 5 suspended in 50 μl the growth medium were placed in each well. After cell seeding, the cells were cultured at 37° C. under air/5% CO2 until about 95% confluency was reached (about 2 days). Afterwards, the serum medium was replaced with the serum-free DMEM medium, and at the same time adenovirus particles were introduced. The resultant cells were subject to continuous culturing for overnight. […]
The doses of virus (multiplicity of infection (MOI)) used in this experiment were comprised of from 0 to about MOI 6,000. At 20 hrs post infection (PI) the A431 cells were washed with HBSS and real time kinetics of the cell responses were recorded before and after stimulation with 32 nM EGF (targeting EGFR and MAPK pathway and cell adhesion pathway), 25 nM epinephrine (targeting Gs pathway and cell adhesion pathway), 32 nM of bradykinin (targeting Gq and Gs pathway), 25 microM of SFFLR-amide or 25 microM of SLIGKV-amide (both targeting Gq and G12/13 pathways) using the Epic® system and illustrated in FIGS. 5 to 7. […]

[6] = test system: EGFR; assay: Mercator Phosphoarray assay in non-infected A431 cells, EGFR; format: cell-based, Human
Procedure: as §1

[7] = test system: adenovirus; assay: RWG biosensor DMR assay: modulation of the adenovirus-induced response in HeLa cells; format: cell-based; conditions: HeLa cells pretreated 1 h with modulator (10 microM latrunculin A, 10 microM cytochalasin B, 40 microM DIPC), then adenovirus MOI 6,000; assay time about 1 hour
Text: Reagents—Latrunculin A and cytochalasin B were purchased from Sigma Chemical Co. (St. Louis, Mo.). Cell permeable dynamin inhibitor peptide control (DIPC) was obtained from Tocris Chemical Co. (St. Louis, Mo.). Adenoviral particles (Ad-CMV-eGFP) were purchased from Vector Biolabs (Philadelphia, Pa.). Cell-culture-ready Corning® Epic™ 96well biosensor microplates were obtained from Corning Inc (Corning, N.Y.). HeLa cell line was obtained from Americal Type Cell Culture.
Cell Culture—HeLa cells were grown in Earle minimum Essential medium (EMEM) supplemented with 10% fetal bovine serum (FBS), 4.5 g/liter glucose, 2 mM glutamine, and antibiotics. ˜10^4 HeLa cells suspended in 200 μl the appropriate medium containing 10% FBS were placed in each well of a 96well biosensor microplate, and were cultured at 37° C. under air/5% CO2 until about 95% confluency was reached.
Optical biosensor measurements—Corning® Epic® angular interrogation system with transverse magnetic or p-polarized TM0 mode (as described in, for example, U.S. Patent Publication No. US-2004-0263841, U.S. patent application Ser. No. 11/019,439, filed Dec. 21, 2004, and U.S. Patent Publication No. US-2005-0236554.) was used. […] Afterwards, the sensor microplate containing cells was placed into the optical system, and the cell responses were recorded before and after addition of a solution. […]

[8] = 25 nM epinephrine for 1 hr vs untreated cells
[9] = 32 nM EGF for 30 min vs untreated cells

CC[C@]1(O)C[C@@H]2CN(CCc3c([nH]c4ccccc34)[C@@](C(=O)OC)(c3cc4c(cc3OC)N(C)[C@H]3[C@@](O)(C(=O)OC)[C@H](OC(C)=O)[C@]5(CC)C=CCN6CC[C@]43[C@@H]65)C2)C1 [vinblastin]
trafficking of adenovirus in cells [1]: block the trafficking of adenovirus

CNC[C@H](O)c1ccc(O)c(O)c1 [epinephrine, Epinephrine]
phosphorylation level of FAK [2, 8]: do not seem to be altered
phosphorylation level of paxillin [3, 8]: decreases
phosphorylation level of Akt [4]: do not seem to be altered
DMR signal upon stimulation [5]: dose-dependent DMR signal
phosphorylation level of EGFR [6, 8]: do not seem to be altered

C=C1[C@@H](C)[C@H]2[C@H](Cc3ccccc3)NC(=O)[C@]23OC(=O)/C=C/[C@H](O)CCC[C@@H](C)C/C=C/[C@H]3[C@@H]1O [cytochalasin B]
trafficking of adenovirus in cells [1]: block the trafficking of adenovirus
adenovirus-induced P-DMR signal [7]: clearly inhibited the P-DMR signal

C/C1=C/C(=O)O[C@@H]2C[C@@H](CC[C@H](C)/C=C\C=C\CC1)O[C@@](O)([C@@H]1CSC(=O)N1)C2 [latrunculin A, Latrunculin A]
adenovirus-induced P-DMR signal [7]: clearly inhibited the P-DMR signal

EGF: natural ligand of epidermal growth factor receptor (NSDSECPLSHDGYCLHDGVCMYIEALDKYACNCVVGYIGERCQYRDLKWWELR; Epidermal growth factor; UniProt P01133 971-1023, looked up)
phosphorylation level of FAK [2, 9]: increased significantly
phosphorylation level of paxillin [3, 9]: only mildly increased
DMR signal upon stimulation ([5]; A431 cells, quiescent for EGF, bradykinin, ATP and thrombin): DMR signal with three distinct and sequential phases
phosphorylation level of EGFR [6, 9]: increased significantly
